The values below come from ChEMBL document CHEMBL1909046, “DrugMatrix in vitro pharmacology data”.

Experiment [1] has as its target T1, Alpha-1B adrenergic receptor (Rattus norvegicus, UniProt P15823).
T1 sequence (P15823 whole entry): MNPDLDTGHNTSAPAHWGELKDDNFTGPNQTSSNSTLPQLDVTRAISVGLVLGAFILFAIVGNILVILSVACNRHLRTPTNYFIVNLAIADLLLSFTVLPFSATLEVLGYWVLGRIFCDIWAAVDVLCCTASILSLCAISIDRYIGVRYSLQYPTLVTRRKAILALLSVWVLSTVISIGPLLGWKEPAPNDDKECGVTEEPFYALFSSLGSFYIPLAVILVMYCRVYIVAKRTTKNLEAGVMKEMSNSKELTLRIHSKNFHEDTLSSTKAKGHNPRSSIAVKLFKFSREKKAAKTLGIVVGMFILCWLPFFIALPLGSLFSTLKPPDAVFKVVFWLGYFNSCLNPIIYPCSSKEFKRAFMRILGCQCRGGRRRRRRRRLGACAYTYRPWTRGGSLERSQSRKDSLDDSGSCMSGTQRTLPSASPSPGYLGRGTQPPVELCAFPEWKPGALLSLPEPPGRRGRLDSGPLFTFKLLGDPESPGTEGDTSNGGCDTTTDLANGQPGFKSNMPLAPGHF
The experiment is described as follows: DRUGMATRIX: Alpha-1B adrenergic receptor radioligand binding (ligand: prazosin). It counts as cell membranes, Wistar, Liver, Membrane. The note with it: Not Active = under 50% inhibition at 10 µM.

Experiment [2] addresses Beta-1 adrenergic receptor (Homo sapiens, UniProt P08588). As to the kind of experiment: DRUGMATRIX: Adrenergic beta1 radioligand binding (ligand: [125I] Cyanopindolol). It counts as cell membranes, CHO-K1, Membrane. The note with it: Not Active = under 50% inhibition at 10 µM.
The next experiment addresses D(3) dopamine receptor (Homo sapiens, UniProt P35462). As to the kind of experiment: DRUGMATRIX: Dopamine D3 radioligand binding (ligand: [3H] Spiperone). It counts as cell membranes, CHO, Membrane. The note with it: for Ki: read-out: Ki.
In experiment [3] the target is T2, Polyunsaturated fatty acid lipoxygenase ALOX15 (Oryctolagus cuniculus, UniProt P12530).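 Further: inhibition of 15-lipoxygenase enzyme activity measured with linoleic acid as the substrate; in other assays of this panel Not Active means under 50% inhibition at 10 µM.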
T2 sequence (P12530 whole entry): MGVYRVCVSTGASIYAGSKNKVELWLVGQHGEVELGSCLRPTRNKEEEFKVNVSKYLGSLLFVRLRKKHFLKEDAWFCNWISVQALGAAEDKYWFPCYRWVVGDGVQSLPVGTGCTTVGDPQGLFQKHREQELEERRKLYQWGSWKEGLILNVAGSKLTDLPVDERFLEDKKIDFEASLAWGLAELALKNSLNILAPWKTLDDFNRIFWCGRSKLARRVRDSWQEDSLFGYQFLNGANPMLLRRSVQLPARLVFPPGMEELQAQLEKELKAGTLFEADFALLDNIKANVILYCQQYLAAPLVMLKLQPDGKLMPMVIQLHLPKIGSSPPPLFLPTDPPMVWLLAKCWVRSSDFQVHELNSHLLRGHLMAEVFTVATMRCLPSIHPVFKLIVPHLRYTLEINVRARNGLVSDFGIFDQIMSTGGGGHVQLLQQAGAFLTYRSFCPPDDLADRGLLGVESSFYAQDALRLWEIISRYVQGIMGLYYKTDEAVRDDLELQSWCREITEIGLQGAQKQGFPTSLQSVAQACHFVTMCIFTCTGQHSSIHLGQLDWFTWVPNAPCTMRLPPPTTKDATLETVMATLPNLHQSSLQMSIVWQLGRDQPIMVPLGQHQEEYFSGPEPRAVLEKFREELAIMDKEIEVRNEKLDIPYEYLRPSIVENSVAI
As to the kind of experiment: biochemical. It counts as tissue-based, Reticulocytes.

For experiment [4], the target named is T3, Muscarinic acetylcholine receptor M5 (Homo sapiens, UniProt P08912). Further: in other assays of this panel Not Active means under 50% inhibition at 10 µM.
T3 sequence (P08912 whole entry): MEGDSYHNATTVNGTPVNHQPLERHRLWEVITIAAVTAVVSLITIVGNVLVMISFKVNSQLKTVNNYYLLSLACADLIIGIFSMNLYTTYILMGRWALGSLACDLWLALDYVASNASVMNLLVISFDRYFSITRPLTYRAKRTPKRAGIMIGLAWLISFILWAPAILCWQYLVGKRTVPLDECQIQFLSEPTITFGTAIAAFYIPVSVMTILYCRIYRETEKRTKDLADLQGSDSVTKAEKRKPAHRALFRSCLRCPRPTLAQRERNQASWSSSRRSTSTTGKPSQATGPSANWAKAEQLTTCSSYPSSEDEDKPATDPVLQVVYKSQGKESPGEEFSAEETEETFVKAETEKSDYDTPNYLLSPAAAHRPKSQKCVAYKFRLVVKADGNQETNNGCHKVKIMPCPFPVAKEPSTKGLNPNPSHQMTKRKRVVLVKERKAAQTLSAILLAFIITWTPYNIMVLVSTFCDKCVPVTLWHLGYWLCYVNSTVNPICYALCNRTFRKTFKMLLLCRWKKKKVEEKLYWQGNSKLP
The class given is cell membranes, Membrane. The settings on record: cho-k1.

Experiment [5] has as its target Matrix metalloproteinase-9 (Homo sapiens, UniProt P14780). As to the kind of experiment: biochemical. The class given is cell-based.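 Further: inhibition of isolated MMP-9 enzyme activity toward a synthetic peptide substrate, from the DrugMatrix protease screening panel; in other assays of this panel Not Active means under 50% inhibition at 10 µM.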

Structures are written as SMILES.

Chain of D(3) dopamine receptor (P35462 whole entry): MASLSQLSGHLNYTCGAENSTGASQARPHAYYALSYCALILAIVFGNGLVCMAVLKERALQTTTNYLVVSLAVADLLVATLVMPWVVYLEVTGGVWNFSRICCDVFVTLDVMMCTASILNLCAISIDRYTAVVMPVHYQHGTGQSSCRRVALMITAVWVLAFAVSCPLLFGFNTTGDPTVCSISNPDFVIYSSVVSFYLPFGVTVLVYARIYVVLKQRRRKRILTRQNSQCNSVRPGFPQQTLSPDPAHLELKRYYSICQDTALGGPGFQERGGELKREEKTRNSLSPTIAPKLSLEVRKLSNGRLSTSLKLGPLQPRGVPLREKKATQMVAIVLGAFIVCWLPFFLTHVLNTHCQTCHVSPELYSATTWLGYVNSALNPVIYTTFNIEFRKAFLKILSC
Chain of Beta-1 adrenergic receptor (P08588 whole entry): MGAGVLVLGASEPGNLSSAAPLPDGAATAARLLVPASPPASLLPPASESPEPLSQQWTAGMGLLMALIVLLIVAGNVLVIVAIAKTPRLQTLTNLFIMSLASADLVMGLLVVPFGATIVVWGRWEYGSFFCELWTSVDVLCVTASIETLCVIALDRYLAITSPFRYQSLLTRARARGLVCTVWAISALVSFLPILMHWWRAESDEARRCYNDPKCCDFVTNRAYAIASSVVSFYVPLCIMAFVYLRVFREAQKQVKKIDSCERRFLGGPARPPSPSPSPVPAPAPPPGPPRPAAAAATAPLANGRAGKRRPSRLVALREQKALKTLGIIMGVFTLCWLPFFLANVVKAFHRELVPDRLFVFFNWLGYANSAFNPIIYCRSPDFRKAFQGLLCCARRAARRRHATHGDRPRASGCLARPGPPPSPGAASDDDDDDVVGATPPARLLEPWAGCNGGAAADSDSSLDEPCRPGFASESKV
Chain of Matrix metalloproteinase-9 (P14780 whole entry): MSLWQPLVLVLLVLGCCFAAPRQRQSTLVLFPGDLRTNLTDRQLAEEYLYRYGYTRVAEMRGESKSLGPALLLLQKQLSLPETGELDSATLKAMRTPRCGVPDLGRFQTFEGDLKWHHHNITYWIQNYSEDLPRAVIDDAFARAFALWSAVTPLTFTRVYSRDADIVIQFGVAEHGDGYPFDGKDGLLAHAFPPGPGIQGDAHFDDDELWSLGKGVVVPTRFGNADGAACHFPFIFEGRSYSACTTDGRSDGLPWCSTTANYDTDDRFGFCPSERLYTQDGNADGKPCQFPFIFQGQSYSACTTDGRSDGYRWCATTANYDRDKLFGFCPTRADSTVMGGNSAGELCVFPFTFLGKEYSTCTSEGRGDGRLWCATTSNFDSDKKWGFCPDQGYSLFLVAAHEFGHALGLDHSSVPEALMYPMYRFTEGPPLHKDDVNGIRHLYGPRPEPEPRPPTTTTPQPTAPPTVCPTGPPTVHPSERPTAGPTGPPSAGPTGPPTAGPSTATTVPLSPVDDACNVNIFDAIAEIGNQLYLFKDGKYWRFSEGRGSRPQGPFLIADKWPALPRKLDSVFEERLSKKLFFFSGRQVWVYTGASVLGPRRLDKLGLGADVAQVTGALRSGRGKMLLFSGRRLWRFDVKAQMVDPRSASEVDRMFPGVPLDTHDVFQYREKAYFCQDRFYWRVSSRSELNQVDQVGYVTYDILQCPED

As to `CO[C@H]1[C@@H](O)[C@H](N)[C@@H](O[C@H]2O[C@H]([C@H](C)N)CC[C@H]2N)[C@H](O)[C@@H]1N(C)C(=O)CN` [ASTROMICIN], the IC50 result (in experiment [1]; in experiment [2] (cho-k1); at D(3) dopamine receptor (cho); in experiment [3] (reticulocytes); in experiment [4]; in experiment [5]) was “Not Active” in each case.

Take `[N-]=[N+]=CC(=O)OC[C@H](N)C(=O)O` [AZASERINE]: the IC50 result (in experiment [1]; in experiment [2] (cho-k1); at D(3) dopamine receptor (cho); in experiment [3] (reticulocytes); in experiment [4]; in experiment [5]) was “Not Active” throughout.

Consider `CC[C@H]1OC(=O)[C@H](C)[C@@H](O[C@H]2C[C@@](C)(OC)[C@@H](O)[C@H](C)O2)[C@H](C)[C@@H](O[C@@H]2O[C@H](C)C[C@H](N(C)C)[C@H]2O)[C@](C)(O)C[C@@H](C)CN(C)[C@H](C)[C@@H](O)[C@]1(C)O` [AZITHROMYCIN], for which the IC50 result (in experiment [1]; in experiment [2] (cho-k1); at D(3) dopamine receptor (cho); in experiment [3] (reticulocytes); in experiment [4]; in experiment [5]) was “Not Active” in each case.

Turning to `CC(C)(C)c1ccc(S(=O)(=O)/C=C/C#N)cc1` [BAY-11-7085], the IC50 entry in experiment [1] was “Not Active”; in experiment [2] (cho-k1), “Not Active”; on D(3) dopamine receptor (read-out: IC50), 3460 nM; in experiment [3] (reticulocytes), “Not Active”; in experiment [4], “Not Active”; in experiment [5] it was “Not Active”. In addition, on D(3) dopamine receptor, the Ki came out at 1170 nM.

As to `CCc1oc2ccccc2c1C(=O)c1cc(Br)c(O)c(Br)c1` [BENZBROMARONE], the IC50 entry (in experiment [1]; in experiment [2] (cho-k1); on D(3) dopamine receptor (cho); in experiment [4]; in experiment [5]) was “Not Active” each time. Also, the Ki result in experiment [3] (reticulocytes) is listed as “Not Active”.

`O=c1cc(-c2ccccc2)oc2ccc3ccccc3c12` [BETA-NAPHTHOFLAVONE]: the IC50 result (in experiment [1]; in experiment [2] (cho-k1); at D(3) dopamine receptor (cho); in experiment [3] (reticulocytes); in experiment [4]; in experiment [5]) was “Not Active” each time.

`CC(C)C[C@H]1C(=O)N2CCC[C@H]2[C@]2(O)O[C@](NC(=O)[C@@H]3C=C4c5cccc6[nH]c(Br)c(c56)C[C@H]4N(C)C3)(C(C)C)C(=O)N12` [BROMOCRIPTINE]: the IC50 was 3.55 nM in experiment [1] (read-out: IC50); 2400 nM in experiment [2] (read-out: IC50); 0.596 nM at D(3) dopamine receptor (read-out: IC50); “Not Active” in experiment [3] (reticulocytes); “Not Active” in experiment [4]; “Not Active” in experiment [5]. The values for the Ki (in experiment [1] (read-out: Ki); in experiment [2] (read-out: Ki); at D(3) dopamine receptor) were 1.96 nM, 1390 nM and 0.202 nM, respectively.

With `CS(=O)(=O)OCCCCOS(C)(=O)=O` [BUSULFAN], the IC50 result is “Not Active” in experiment [1]; “Not Active” in experiment [2] (cho-k1); “Not Active” on D(3) dopamine receptor (cho); “Not Active” in experiment [3] (reticulocytes); “Not Active” in experiment [4]; 5220 nM in experiment [5] (read-out: IC50).

On to `O=C(/C=C/c1ccc(O)c(O)c1)OCCc1ccccc1` [CAFFEIC ACID PHENETHYL ESTER], for which the half-maximal inhibitory concentration (IC50) result (in experiment [1]; in experiment [2] (cho-k1); at D(3) dopamine receptor (cho); in experiment [3] (reticulocytes); in experiment [4]; in experiment [5]) was “Not Active” in each case.

Consider `COc1cc(CNC(=O)CCCC/C=C/C(C)C)ccc1O` [CAPSAICIN], for which the IC50 result (in experiment [1]; in experiment [2] (cho-k1); on D(3) dopamine receptor (cho); in experiment [3] (reticulocytes); in experiment [4]; in experiment [5]) was “Not Active” in each case.

Turning to `NC(=O)N1c2ccccc2C=Cc2ccccc21` [CARBAMAZEPINE], the IC50 entry (in experiment [1]; in experiment [2] (cho-k1); at D(3) dopamine receptor (cho); in experiment [3] (reticulocytes); in experiment [4]; in experiment [5]) was “Not Active” throughout.

On to `CCOC(=O)n1ccn(C)c1=S` [CARBIMAZOLE], for which the IC50 entry (in experiment [1]; in experiment [2] (cho-k1); at D(3) dopamine receptor (cho); in experiment [3] (reticulocytes); in experiment [4]; in experiment [5]) was “Not Active” throughout.

As to `Oc1ccccc1O` [CATECHOL], the IC50 entry in experiment [1] is “Not Active”; in experiment [2] (cho-k1), “Not Active”; at D(3) dopamine receptor (cho) it was “Not Active”; in experiment [3] (read-out: IC50), 868 nM; in experiment [4], “Not Active”; in experiment [5] (read-out: IC50) it was 23400 nM.

For the molecule `CO[C@@]1(NC(=O)CSCC#N)C(=O)N2C(C(=O)O)=C(CSc3nnnn3C)CS[C@@H]21` [CEFMETAZOLE], the IC50 result (in experiment [1]; in experiment [2] (cho-k1); at D(3) dopamine receptor (cho); in experiment [3] (reticulocytes); in experiment [4]; in experiment [5]) was “Not Active” in each case.

For the molecule `CN(C(=O)CCCOc1ccc2[nH]c(=O)ccc2c1)C1CCCCC1` [CILOSTAMIDE], the IC50 entry (in experiment [1]; in experiment [2] (cho-k1); on D(3) dopamine receptor (cho); in experiment [3] (reticulocytes); in experiment [4]; in experiment [5]) was “Not Active” in each case.

On to `CC(C)(Oc1ccc(C2CC2(Cl)Cl)cc1)C(=O)O` (centres undefined) [CIPROFIBRATE], for which the IC50 entry (in experiment [1]; in experiment [2] (cho-k1); on D(3) dopamine receptor (cho); in experiment [3] (reticulocytes); in experiment [4]; in experiment [5]) was “Not Active” in each case.

Regarding `Nc1nc(Cl)nc2c1ncn2[C@H]1C[C@H](O)[C@@H](CO)O1` [CLADRIBINE], the IC50 result (in experiment [1]; in experiment [2] (cho-k1); on D(3) dopamine receptor (cho); in experiment [3] (reticulocytes); in experiment [4]; in experiment [5]) was “Not Active” each time.

Regarding `CC[C@H]1OC(=O)[C@H](C)[C@@H](O[C@H]2C[C@@](C)(OC)[C@@H](O)[C@H](C)O2)[C@H](C)[C@@H](O[C@@H]2O[C@H](C)C[C@H](N(C)C)[C@H]2O)[C@](C)(OC)C[C@@H](C)C(=O)[C@H](C)[C@@H](O)[C@]1(C)O` [CLARITHROMYCIN], the IC50 result (in experiment [1]; in experiment [2] (cho-k1); on D(3) dopamine receptor (cho); in experiment [3] (reticulocytes); in experiment [4]; in experiment [5]) was “Not Active” throughout.

Regarding `CCC[C@@H]1C[C@@H](C(=O)N[C@@H]([C@H]2O[C@H](SC)[C@H](O)[C@@H](O)[C@H]2O)[C@H](C)Cl)N(C)C1` [CLINDAMYCIN], the IC50 result (in experiment [1]; in experiment [2] (cho-k1); on D(3) dopamine receptor (cho); in experiment [3] (reticulocytes); in experiment [4]; in experiment [5]) was “Not Active” each time.

Take `O=C(O)c1cc(=O)c2c(OCC(O)COc3cccc4oc(C(=O)O)cc(=O)c34)cccc2o1` [CROMOLYN]: the IC50 result (in experiment [1]; in experiment [2] (cho-k1); at D(3) dopamine receptor (cho); in experiment [3] (reticulocytes); in experiment [4]; in experiment [5]) was “Not Active” throughout.
